Experimental data as given in publication PMC9841533, “Microtubule-Stabilizing 1,2,4-Triazolo[1,5-a]pyrimidines as Candidate Therapeutics for Neurodegenerative Disease: Matched Molecular Pair Analyses and Computational Studies Reveal New Structure–Activity Insights” (Journal of Medicinal Chemistry, 2022).
Read-outs that look alike come from different tables or passages of the source.

Assays:
Type in all cases: cell-based
[1] = test system: acetylated α-tubulin (AcTub) levels in QBI293 cells; experiment: QBI293 cell assay of MT stabilization: acetylated α-tubulin ELISA
How it was run: (§1)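 AcTub and α-Tub were quantified by ELISA in whole-cell extracts normalized by BCA protein and expressed relative to vehicle. AcTub changes were also scaled to a 100 nM reference stabilizer control.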

[2] = test system: total α-tubulin (α-Tub) levels in QBI293 cells; experiment: QBI293 cell assay: total α-tubulin ELISA
How it was run: as §1

[3] = Resazurin cell viability assay, QBI293; conditions: human, QBI293 cells, three biological replicates, read-out: QBI293 CC50 ± SD
[4] = Resazurin cell viability assay, HeLa; conditions: human, HeLa cells, three biological replicates, read-out: HeLa CC50 ± SD

For `C[C@@H](Nc1c(-c2c(F)cc(C#CCCO)cc2F)c(Cl)nc2ncnn12)C(C)(C)C` [Compound 53, (R)-4-(4-(5-Chloro-7-((3,3-dimethylbutan-2-yl)amino)-[1,2,4]triazolo[1,5-a]pyrimidin-6-yl)-3,5-difluorophenyl)but-3-yn-1-ol], the “AcTub (1 uM - normalized)” value ([1]; 1 uM compound, normalized) was 0.57, the “AcTub (10 uM - normalized)” value ([1]; 10 uM compound, normalized) was 0.81 and the fold induction at 1 µM ([1]; 4 h, 1 uM compound, read-out: AcTub (1uM)) was 3.67. The fold induction at 10 µM ([1]; 4 h, 10 uM compound, read-out: AcTub (10 uM)) was 5.25, the “AcTub 1 μM, fold-change compared to positive control compound 5 (100 nM) (in parentheses)” value ([1]; 4 h incubation, 1 μM) was 0.57 fold-change and the fold induction at 1 µM ([1]; 4 h incubation, 1 μM, read-out: AcTub 1 μM, fold-change compared to vehicle (DMSO)-treated cells) was 3.67 ± 0.34. The “AcTub 10 μM, fold-change compared to positive control compound 5 (100 nM) (in parentheses)” value ([1]; 4 h incubation, 10 μM) was 0.81 fold-change, the fold induction at 10 µM ([1]; 4 h incubation, 10 μM, read-out: AcTub 10 μM, fold-change compared to vehicle (DMSO)-treated cells) was 5.25 ± 0.89 and the fold induction at 1 µM ([2]; 4 h, 1 uM compound, read-out: AlfaTub (1uM)) was 0.98. The fold induction at 10 µM ([2]; 4 h, 10 uM compound, read-out: AlfaTub (10 uM)) was 0.98, the fold induction at 1 µM ([2]; 4 h incubation, 1 μM, read-out: α-Tub 1 μM, fold-change compared to vehicle (DMSO)-treated cells) was 0.98 ± 0.04 and the fold induction at 10 µM ([2]; 4 h incubation, 10 μM, read-out: α-Tub 10 μM, fold-change compared to vehicle (DMSO)-treated cells) was 0.98 ± 0.21. The CC50 at 48 h [3] was 30.1 ± 4.8 nM and the CC50 at 48 h [4] was 30.8 ± 4.7 nM.
